Results taken from PubChem BioAssay (NCI).
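Cultured in 96-well plates, cells were exposed to test compound for 48 hours across five concentrations. The concentration for 50% growth inhibition is given as GI50. TGI is the concentration that stops growth completely.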 Where a SMILES comes first, the peptide text is derived from it.

Key:
Assay in all cases: NCI tumour cell line growth inhibition, 48 h
HS 578T breast = system: HS 578T breast
HCT-15 colon = system: HCT-15 colon
SR leukemia = system: SR leukemia
KM12 colon = system: KM12 colon
786-0 renal = system: 786-0 renal
MDA-N = system: MDA-N
EKVX NSCLC = system: EKVX NSCLC
HCT-116 colon = system: HCT-116 colon
M14 melanoma = system: M14 melanoma
SN12K1 renal = system: SN12K1 renal
HOP-18 NSCLC = system: HOP-18 NSCLC

## COc1cc(/C=N/c2nc3cc4sc(/N=C/c5cc(OC)c(OC)c(OC)c5)nc4cc3s2)cc(OC)c1OC
HS 578T breast
  TGI: > 100 µM
HCT-15 colon
  TGI: > 100 µM
SR leukemia
  TGI: > 100 µM
KM12 colon
  TGI: > 100 µM
786-0 renal
  TGI: > 100 µM
MDA-N
  TGI: 81.7 µM
EKVX NSCLC
  TGI: > 100 µM
HCT-116 colon
  TGI: > 100 µM
M14 melanoma
  TGI: > 100 µM

## CCc1n[nH]c(=O)n1/N=C(\C)c1ccc([N+](=O)[O-])cc1
HS 578T breast
  TGI: > 100 µM
HCT-15 colon
  TGI: > 100 µM
KM12 colon
  TGI: > 100 µM
786-0 renal
  TGI: > 100 µM
MDA-N
  TGI: > 100 µM
EKVX NSCLC
  TGI: > 100 µM
HCT-116 colon
  TGI: > 100 µM
M14 melanoma
  TGI: > 100 µM

## O=C(NC(Cc1ccc(Br)cc1)C(=O)O)c1ccc(I)cc1 (stereo not given)
HCT-15 colon
  TGI: > 100 µM
SN12K1 renal
  TGI: > 100 µM
KM12 colon
  TGI: > 100 µM
HOP-18 NSCLC
  TGI: > 100 µM
EKVX NSCLC
  TGI: > 100 µM
HCT-116 colon
  TGI: > 100 µM

## CCCCCCCCCCCCCC1=C(O)C(=O)C(CC2=C(O)C(=O)C(CCCCCCCCCCCCC)=C(O)C2=O)=C(O)C1=O
HS 578T breast
  TGI: > 100 µM
SR leukemia
  TGI: > 100 µM
KM12 colon
  TGI: > 100 µM
786-0 renal
  TGI: > 100 µM
MDA-N
  TGI: > 100 µM
EKVX NSCLC
  TGI: > 100 µM
HCT-116 colon
  TGI: > 100 µM
M14 melanoma
  TGI: > 100 µM

## O=C1c2cccnc2C(=O)c2c1c(C(=O)OCCN1CCCCC1)c1ccccn21
HS 578T breast
  GI50: 0.0723 µM
  TGI: 0.376 µM
HCT-15 colon
  GI50: 0.0416 µM
  TGI: 0.984 µM
SR leukemia
  GI50: 0.00698 µM
  TGI: 0.0828 µM
KM12 colon
  GI50: 0.16 µM
  TGI: 9.02 µM
EKVX NSCLC
  GI50: 0.851 µM
  TGI: 7.52 µM
HCT-116 colon
  GI50: 0.041 µM
  TGI: 1.95 µM
M14 melanoma
  GI50: 0.0147 µM
  TGI: 0.0656 µM

## Cc1cc2c(c(O)c1-c1c(C)cc(O)c3c1C(=O)C=CC3=O)C(=O)C=CC2=O
HS 578T breast
  TGI: 32.9 µM
SR leukemia
  TGI: 0.265 µM
KM12 colon
  TGI: 32.9 µM
MDA-N
  TGI: 4.03 µM
M14 melanoma
  TGI: > 100 µM

## O=C(Oc1c(Cl)cc(C2(c3cc(Cl)c(OC(=O)c4ccccc4)c(Cl)c3)CCCCC2)cc1Cl)c1ccccc1
HS 578T breast
  TGI: 32.4 µM
HCT-15 colon
  TGI: 24.6 µM
KM12 colon
  TGI: 23.9 µM
786-0 renal
  TGI: 27.5 µM
MDA-N
  TGI: 25.6 µM
EKVX NSCLC
  TGI: 24.9 µM
HCT-116 colon
  TGI: 25.9 µM
M14 melanoma
  TGI: 30.3 µM

## CC1C(=O)CC(c2cccs2)N(N=O)C1c1cccs1 (stereo not given)
HCT-15 colon
  TGI: > 100 µM
SN12K1 renal
  TGI: > 100 µM
KM12 colon
  TGI: > 100 µM
HOP-18 NSCLC
  TGI: > 100 µM
EKVX NSCLC
  TGI: > 100 µM
HCT-116 colon
  TGI: > 100 µM

## CC1(CO)COS(=O)OC1 (stereo not given)
HS 578T breast
  TGI: > 100 µM
HCT-15 colon
  TGI: > 100 µM
SR leukemia
  TGI: > 100 µM
KM12 colon
  TGI: > 100 µM
MDA-N
  TGI: > 100 µM
HCT-116 colon
  TGI: > 100 µM

## OC[C@H]1NC[C@@H](O)[C@@H](O)[C@H]1O
HS 578T breast
  TGI: > 100 µM
HCT-15 colon
  TGI: > 100 µM
SR leukemia
  TGI: > 100 µM
KM12 colon
  TGI: > 100 µM
MDA-N
  TGI: > 100 µM
HCT-116 colon
  TGI: > 100 µM
M14 melanoma
  TGI: > 100 µM

## O=C(CSCC(=O)N/N=C/c1ccccc1)N/N=C\c1ccccc1
HS 578T breast
  TGI: > 100 µM
HCT-15 colon
  TGI: > 100 µM
KM12 colon
  TGI: > 100 µM
786-0 renal
  TGI: > 100 µM
EKVX NSCLC
  TGI: > 100 µM
HCT-116 colon
  TGI: > 100 µM
M14 melanoma
  TGI: > 100 µM

## S=c1c2[nH]cnc2ncn1CCSC1=NC=NC2=NC=NC21 (stereo not given)
HS 578T breast
  TGI: > 100 µM
HCT-15 colon
  TGI: > 100 µM
SR leukemia
  TGI: > 100 µM
KM12 colon
  TGI: > 100 µM
786-0 renal
  TGI: > 100 µM
HOP-18 NSCLC
  TGI: > 100 µM
MDA-N
  TGI: > 100 µM
EKVX NSCLC
  TGI: > 100 µM
HCT-116 colon
  TGI: > 100 µM
M14 melanoma
  TGI: > 100 µM

## Cc1[nH]c(=O)[nH]c(=O)c1/C=C/C(=O)NC(CO)CS(=O)CS(C)=O (stereo not given)
HCT-15 colon
  TGI: 408 µM
SN12K1 renal
  TGI: 64.8 µM
KM12 colon
  TGI: > 92.1 µM
HOP-18 NSCLC
  TGI: 551 µM
EKVX NSCLC
  TGI: 66.4 µM
HCT-116 colon
  TGI: 129 µM

## COc1ccc(-c2nc3c(nc2-c2ccc(OC)cc2)C(N)=NS(=O)(=O)N3)cc1
HCT-15 colon
  TGI: > 100 µM
KM12 colon
  TGI: > 100 µM
786-0 renal
  TGI: > 100 µM
EKVX NSCLC
  TGI: > 100 µM

## CSc1nc(CO)c(CO)n1C
HCT-15 colon
  TGI: > 100 µM
SN12K1 renal
  TGI: > 100 µM
KM12 colon
  TGI: > 100 µM
HOP-18 NSCLC
  TGI: > 100 µM
EKVX NSCLC
  TGI: > 100 µM
HCT-116 colon
  TGI: > 100 µM

## CN(Cc1cn(O)c2nc(=N)nc(N)c-2n1)c1ccc(C(=O)NC23CC4CC(CC(C4)C2)C3)cc1
HS 578T breast
  TGI: 40.4 µM
HCT-15 colon
  TGI: > 100 µM
SR leukemia
  TGI: > 100 µM
KM12 colon
  TGI: > 100 µM
786-0 renal
  TGI: > 100 µM
MDA-N
  TGI: > 100 µM
EKVX NSCLC
  TGI: > 100 µM
HCT-116 colon
  TGI: > 100 µM
M14 melanoma
  TGI: > 100 µM

## NC(=O)C1CCCN1C(=O)C(N)Cc1ccccc1 (stereo not drawn) (H-Phe-Pro-NH2; configuration not given here)
HCT-15 colon
  TGI: > 100 µM
SR leukemia
  TGI: > 100 µM
MDA-N
  TGI: > 100 µM
EKVX NSCLC
  TGI: > 100 µM
HCT-116 colon
  TGI: > 100 µM
M14 melanoma
  TGI: > 100 µM
